Measured values as given in publication PMC8409943, “Study on mechanism of low bioavailability of black tea theaflavins by using Caco-2 cell monolayer” (Drug Delivery, 2021).
Values belong to the compound of their own block, whether it stands above or below them.

Columns and labels:
MRP1 = test: Quantitative real-time PCR, mRNA level of MRP1; format: cell-based, Human; details: Caco-2 cells, 200 μM, 2 h, vs control
Procedure: (§1) Cell culture and treatment were performed as described above in 2.6. Total RNA was extracted from Caco-2 cells by the cell RNA extraction kit, and then reverse-transcribed by the cDNA synthesis kit. Gene amplification and quantitative detection were performed as previously described (Ai et al., [2019]). Target mRNA levels were normalized to β-actin mRNA levels. Data were calculated by the 2^−ΔΔCT method.

P-gp [1] = test: Quantitative real-time PCR, mRNA level of P-gp; format: cell-based, Human; details: Caco-2 cells, 200 μM, 2 h, vs control
Procedure: as §1

P-gp [2] = test: Western blot, protein level of P-gp; format: cell-based, Human; details: Caco-2 cells, 200 μM, 2 h, normalized to β-actin, vs control
Procedure: Cell lysates were prepared with RIPA lysis buffer. […] Cell protein (50 μg) was loaded onto SDS polyacrylamide gel (5% stacking gel; 8% separating gel) and separated by electrophoresis for 1.5 h at 20 mA. Next, the separated proteins were transferred onto the PVDF membrane in ice bath for 1.5 h at 120 mA, followed by blocking the membrane with 5% nonfat milk in Tris-buffered saline containing 0.1% Tween-20 (TBST) for 1 h at room temperature. After blocking, the blots were incubated overnight at 4 °C with the primary antibody of P-gp, MRP1, MRP2, MRP3, BCRP (1:200) or β-actin (1:40,000), followed by washing with TBST and incubation for 1 h at room temperature with HRP-conjugated goat anti-rabbit (1:3,000). Immunoreactive proteins were visualized by the ECL detection system, band intensity was quantified by Image Lab (Bio-Rad, CA, USA), and the protein contents were normalized to β-actin.

MRP3 = test: Quantitative real-time PCR, mRNA level of MRP3; format: cell-based, Human; details: Caco-2 cells, 200 μM, 2 h, vs control
Procedure: as §1

Caco-2 cells = test: Intracellular accumulation of theaflavin monomers; details: 200 μM theaflavins, 2 h incubation, 37 °C
Procedure: Caco-2 cells were seeded at a density of 8 × 10^4 cells per well in 6-well plates (Ni et al., [2020]). After differentiation over a period of 21 days, cells were incubated with 2.0 mL of 200 μM theaflavins at 37 °C. After 2 h incubation, phosphate buffer was added to wash cells in the plate. Then, cell lysates were prepared with RIPA lysis buffer containing 1 mM PMSF as a protease inhibitor and centrifugated at 12,000 rpm for 30 min. Total protein contents were quantified using a BCA estimation kit according to the manufacturer’s instructions (Beyotime). Theaflavins were quantified by HPLC analysis and the intracellular accumulation was expressed as µg theaflavin/mg protein.
Theaflavins were characterized by high performance liquid chromatography (HPLC, Agilent 1100VL, Agilent Technologies Inc., CA, USA). Briefly, samples were extracted with 70% methanol, centrifuged at 685 × g for 10 min, and filtered through a 0.45 μm membrane (Nylon 66). […] Samples were eluted with a gradient of solvent A (100 mL water with 9 mL acetonitrile and 2 mL acetic acid) and B (100 mL acetonitrile with 17.8 mL water and 2 mL acetic acid) as follows: 0–5 min, 95% A; 5–10 min, 90% A; 10–20 min, 70% A; 20–25 min, 65% A; 25–30 min, 70% A; 30–35 min, 100% A. Theaflavins were detected using an ultraviolet detector at a wavelength of 278 nm.

[3] = parameters: method as in Henning et al., 2006; details: mice treated with decaffeinated black tea (50 mg/g diet) for two weeks; ref Henning et al., 2006; cited from earlier work
[4] = 2 h, 200 μM
Procedure: Standard stock solutions of each theaflavin were diluted with HBSS and DMEM respectively, obtaining final test solutions of 200 μM. The recovery rate of theaflavins in HBSS and in DMEM, in the absence of cells, was analyzed by HPLC after incubation at 37 °C for 0.5, 1, 2, 3, 4, 8, 12, and 24 hours, respectively. The recovery rate was used to measure the stability and calculated as follows: (2) Recovery rate=Ct/C0× 100% where Ct is the final concentration at different incubation time (μM); C0, the initial concentration (μM).
Theaflavins were characterized by high performance liquid chromatography (HPLC, Agilent 1100VL, Agilent Technologies Inc., CA, USA). Briefly, samples were extracted with 70% methanol, centrifuged at 685 × g for 10 min, and filtered through a 0.45 μm membrane (Nylon 66). The separation was performed by an ODS reversed-phase column (4.6 mm i.d.×250 mm, SB-C18, Agilent Technologies Inc., CA, USA) at a flow rate of 0.7 mL/min. Chromatographic conditions were slightly modified according to China National Standard (GB/T 30483-2013, GAQSIQ, P. R. China, 2013). Samples were eluted with a gradient of solvent A (100 mL water with 9 mL acetonitrile and 2 mL acetic acid) and B (100 mL acetonitrile with 17.8 mL water and 2 mL acetic acid) as follows: 0–5 min, 95% A; 5–10 min, 90% A; 10–20 min, 70% A; 20–25 min, 65% A; 25–30 min, 70% A; 30–35 min, 100% A. Theaflavins were detected using an ultraviolet detector at a wavelength of 278 nm.

BCRP = test: Quantitative real-time PCR, mRNA level of BCRP; format: cell-based, Human; details: Caco-2 cells, 200 μM, 2 h, vs control
Procedure: as §1

SMILES: O=C(O[C@@H]1Cc2c(O)cc(O)cc2O[C@@H]1c1cc(O)c(=O)c2c(O)c(O)cc([C@H]3Oc4cc(O)cc(O)c4C[C@H]3O)c2c1)c1cc(O)c(O)c(O)c1 [TF3G, theaflavin-3-gallate]
increase of mRNA level of MRP1 (MRP1): 154.97%
increase of mRNA level of P-gp (P-gp [1]): 44.45%
increase of protein level of P-gp (P-gp [2]): 23.94%
increase of mRNA level of MRP3 (MRP3): 34.01%

Contents of theaflavins absorbed in Caco-2 cells (Caco-2 cells): -
SMILES: O=C(O[C@@H]1Cc2c(O)cc(O)cc2O[C@@H]1c1cc(O)c(O)c2c(=O)c(O)cc([C@H]3Oc4cc(O)cc(O)c4C[C@H]3O)cc12)c1cc(O)c(O)c(O)c1 [TF3’G, theaflavin-3’-gallate]

degraded due to the structural instability [4]: 11.6%
SMILES: O=C(O[C@@H]1Cc2c(O)cc(O)cc2O[C@@H]1c1cc(O)c(=O)c2c(O)c(O)cc([C@H]3Oc4cc(O)cc(O)c4C[C@H]3OC(=O)c3cc(O)c(O)c(O)c3)c2c1)c1cc(O)c(O)c(O)c1 [TFDG, theaflavin-3, 3’-digallate]
amount in tissue samples [3]: less than 1 nmol/g tissue
increase of mRNA level of BCRP (BCRP): 35.49%
